What is called inhibition is the change of the read-out against control, counted positive when it falls.

Among the data in ChEMBL document CHEMBL3132814, “Synthesis and biological evaluation of tetrahydropyridinepyrazoles (PFPs) as inhibitors of STAT3 phosphorylation” (2014) are inhibition values, retold here.

Each structure is given as a SMILES string. Activity calls are given as the source filed them. No cut-off for these calls is given here.

For test [1], the system named is HepG2. Description: Antiproliferative activity against human HepG2 cells assessed as inhibition of cell proliferation at 100 uM after 2 hrs by MTT assay. Type of test: functional. The settings on record: for inhibition at 100 µM: HepG2, 2 h. (In general: Tetrazolium dyes change colour on reduction, which living cells bring about.)
Test [2] relates to HCCLM3. Kind of test: Inhibition of human HCCLM3 cells migration at 10 uM for 6 hrs by matrigel invasion assay. The test is classed as functional, cell-based.
Test [3] relates to HCCLM3. Kind of test: Inhibition of CXCL12-induced human HCCLM3 cells migration pretreated at 10 uM for 6 hrs by wound-healing assay. The test is classed as functional, cell-based.
The subject of test [4] is HepG2. Kind of test: Antiproliferative activity against human HepG2 cells assessed as inhibition of cell proliferation at 10 to 100 uM by MTT dye uptake assay. Type of test: functional, cell-based. To be noted: TDE = time-dependent effect.
The subject of test [5] is PC-3. Kind of test: Antiproliferative activity against human PC3 cells assessed as inhibition of cell proliferation at 10 to 100 uM after 24 to 72 hrs by MTT assay. The test is classed as functional, cell-based.
Test [6] deals with HepG2. Description: Antiproliferative activity against human HepG2 cells assessed as inhibition of cell proliferation after 24 to 72 hrs by MTT dye uptake assay. The test is classed as functional, cell-based.
Test [7] has as its system MCF7. Kind of test: Antiproliferative activity against human MCF7 cells assessed as inhibition of cell proliferation at 100 uM after 2 hrs by MTT assay. To be noted: MCF7, 2 h. Type of test: functional.
Test [8] deals with Proto-oncogene tyrosine-protein kinase Src (Homo sapiens) (UniProt P12931). Kind of test: Inhibition of Src kinase activation in human HepG2 cells assessed as inhibition of phosphorylation at 10 uM by Western blot analysis. Type of test: cell-based. To be noted: TDE = time-dependent effect.
Sequence of Proto-oncogene tyrosine-protein kinase Src (Homo sapiens) (P12931 2-536 limits assumed): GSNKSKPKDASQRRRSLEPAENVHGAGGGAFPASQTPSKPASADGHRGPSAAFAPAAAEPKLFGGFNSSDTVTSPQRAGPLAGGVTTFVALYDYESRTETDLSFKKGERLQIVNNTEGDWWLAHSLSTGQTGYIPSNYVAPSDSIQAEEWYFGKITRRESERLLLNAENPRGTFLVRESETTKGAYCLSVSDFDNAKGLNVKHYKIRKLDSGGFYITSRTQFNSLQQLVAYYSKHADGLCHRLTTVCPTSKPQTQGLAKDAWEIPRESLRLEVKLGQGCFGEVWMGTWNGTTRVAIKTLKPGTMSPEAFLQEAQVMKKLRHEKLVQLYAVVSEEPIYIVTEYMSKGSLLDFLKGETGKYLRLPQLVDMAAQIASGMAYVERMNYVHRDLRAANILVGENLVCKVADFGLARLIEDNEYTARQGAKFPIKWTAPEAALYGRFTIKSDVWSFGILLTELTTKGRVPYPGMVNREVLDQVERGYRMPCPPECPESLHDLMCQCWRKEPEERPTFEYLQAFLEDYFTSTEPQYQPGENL
In test [9] the target is Signal transducer and activator of transcription 3 (Homo sapiens) (UniProt P40763). Description: Inhibition of STAT3 activation in human HepG2 cells assessed as maximal inhibition of phosphorylation at tyrosine 705 at 10 uM at 4 to 6 hrs by Western blot analysis. The test is classed as cell-based. (In general: Immunoblotting shows a protein as a band on a membrane.)
Sequence of Signal transducer and activator of transcription 3 (Homo sapiens) (P40763 whole entry): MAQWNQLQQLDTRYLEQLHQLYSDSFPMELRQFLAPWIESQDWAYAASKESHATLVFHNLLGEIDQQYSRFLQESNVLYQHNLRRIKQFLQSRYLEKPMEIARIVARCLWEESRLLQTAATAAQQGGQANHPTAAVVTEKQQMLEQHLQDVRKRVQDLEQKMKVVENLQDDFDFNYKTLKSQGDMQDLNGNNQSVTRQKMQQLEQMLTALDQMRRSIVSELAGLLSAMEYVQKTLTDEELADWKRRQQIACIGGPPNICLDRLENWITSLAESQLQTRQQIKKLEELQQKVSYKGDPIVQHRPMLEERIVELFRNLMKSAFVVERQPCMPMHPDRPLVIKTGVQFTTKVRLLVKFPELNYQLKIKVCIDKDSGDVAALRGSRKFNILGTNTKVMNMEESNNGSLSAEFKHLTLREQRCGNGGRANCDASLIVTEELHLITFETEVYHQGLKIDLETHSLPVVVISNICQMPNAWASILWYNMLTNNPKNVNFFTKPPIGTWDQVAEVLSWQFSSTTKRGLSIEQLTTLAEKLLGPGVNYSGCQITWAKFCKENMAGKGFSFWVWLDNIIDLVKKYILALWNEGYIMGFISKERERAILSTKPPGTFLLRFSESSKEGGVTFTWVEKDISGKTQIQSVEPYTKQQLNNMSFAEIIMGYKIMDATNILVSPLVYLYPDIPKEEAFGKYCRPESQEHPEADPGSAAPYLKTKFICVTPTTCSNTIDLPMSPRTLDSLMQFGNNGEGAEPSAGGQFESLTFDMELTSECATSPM
In test [10] the test system is PLC-PRF-5. Description: Antiproliferative activity against human PLC/PRF/5 cells assessed as inhibition of cell proliferation at 10 to 100 uM by MTT dye uptake assay. Type of test: functional, cell-based. To be noted: TDE = time-dependent effect.
The subject of test [11] is PLC-PRF-5. Description: Antiproliferative activity against human PLC/PRF/5 cells assessed as inhibition of cell proliferation after 24 to 72 hrs by MTT dye uptake assay. Type of test: functional, cell-based.
Test [12] relates to Huh-7. Description: Antiproliferative activity against human HuH7 cells assessed as inhibition of cell proliferation at 10 to 100 uM by MTT dye uptake assay. Type of test: functional, cell-based. The settings on record: TDE = time-dependent effect.
Test [13] has as its system Huh-7. Kind of test: Antiproliferative activity against human HuH7 cells assessed as inhibition of cell proliferation after 24 to 72 hrs by MTT dye uptake assay. The test is classed as functional, cell-based.
Test [14] concerns Hep 3B2. Kind of test: Antiproliferative activity against human Hep3B cells assessed as inhibition of cell proliferation after 24 to 72 hrs by MTT dye uptake assay. The test is classed as functional, cell-based.
Test [15] has as its target Signal transducer and activator of transcription 3 (Homo sapiens) (UniProt P40763). Kind of test: Inhibition of STAT3 activation in human HepG2 cells assessed as inhibition of phosphorylation at tyrosine 705 at 10 uM by Western blot analysis. The test is classed as cell-based. The settings on record: TDE = time-dependent effect.
For test [16], the target named is Tyrosine-protein kinase JAK2 (Homo sapiens) (UniProt O60674). Description: Inhibition of JAk2 activation in human HepG2 cells assessed as inhibition of phosphorylation at 10 uM by Western blot analysis. The test is classed as cell-based. To be noted: TDE = time-dependent effect.
Sequence of Tyrosine-protein kinase JAK2 (Homo sapiens) (O60674 whole entry): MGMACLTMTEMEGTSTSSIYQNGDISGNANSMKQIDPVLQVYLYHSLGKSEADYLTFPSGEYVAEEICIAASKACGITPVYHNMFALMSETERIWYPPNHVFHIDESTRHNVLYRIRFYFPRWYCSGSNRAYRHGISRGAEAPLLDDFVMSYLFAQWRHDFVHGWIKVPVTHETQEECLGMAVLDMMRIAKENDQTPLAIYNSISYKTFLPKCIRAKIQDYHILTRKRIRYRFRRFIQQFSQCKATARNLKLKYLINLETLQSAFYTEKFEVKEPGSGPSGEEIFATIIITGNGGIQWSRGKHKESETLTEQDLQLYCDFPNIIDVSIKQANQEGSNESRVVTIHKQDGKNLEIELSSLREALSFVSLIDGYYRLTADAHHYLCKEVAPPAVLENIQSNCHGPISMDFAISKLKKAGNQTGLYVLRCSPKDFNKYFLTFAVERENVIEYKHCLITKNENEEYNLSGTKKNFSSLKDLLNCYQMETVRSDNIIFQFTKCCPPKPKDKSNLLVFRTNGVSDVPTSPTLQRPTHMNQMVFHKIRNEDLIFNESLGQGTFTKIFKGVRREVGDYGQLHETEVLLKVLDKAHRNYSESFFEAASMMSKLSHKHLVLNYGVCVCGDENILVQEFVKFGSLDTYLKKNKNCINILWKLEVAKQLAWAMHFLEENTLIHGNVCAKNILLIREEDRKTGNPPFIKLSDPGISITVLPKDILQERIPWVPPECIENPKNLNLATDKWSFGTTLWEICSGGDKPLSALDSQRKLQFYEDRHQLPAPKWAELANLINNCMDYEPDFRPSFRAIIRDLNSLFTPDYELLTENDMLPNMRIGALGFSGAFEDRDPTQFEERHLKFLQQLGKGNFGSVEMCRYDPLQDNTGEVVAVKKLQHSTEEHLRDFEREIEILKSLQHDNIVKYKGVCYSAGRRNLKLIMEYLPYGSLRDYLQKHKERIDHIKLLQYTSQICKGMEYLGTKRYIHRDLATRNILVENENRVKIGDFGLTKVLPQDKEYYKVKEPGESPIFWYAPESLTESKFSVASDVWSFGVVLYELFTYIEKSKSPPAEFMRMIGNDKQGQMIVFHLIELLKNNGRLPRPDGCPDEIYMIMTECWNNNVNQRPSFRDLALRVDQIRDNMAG
The subject of test [17] is HCCLM3. Kind of test: Inhibition of CXCL12-induced human HCCLM3 cells migration pretreated at 10 uM for 6 hrs by matrigel invasion assay. The test is classed as functional, cell-based.
Test [18] has as its system HCCLM3. Kind of test: Inhibition of human HCCLM3 cells migration at 10 uM for 6 hrs by wound-healing assay. The test is classed as functional, cell-based.
The subject of test [19] is Hep 3B2. Kind of test: Antiproliferative activity against human Hep3B cells assessed as inhibition of cell proliferation at 10 to 100 uM by MTT dye uptake assay. To be noted: TDE = time-dependent effect. The test is classed as functional, cell-based.
Test [20] addresses Signal transducer and activator of transcription 3 (Homo sapiens) (UniProt P40763). Description: Inhibition of STAT3-DNA binding in human HepG2 cells after 6 hrs by ELISA based DNA binding assay. Type of test: cell-based.
Test [21] shares this target. Kind of test: Inhibition of STAT3-DNA binding in human HepG2 cells at 10 uM after 6 hrs by ELISA based DNA binding assay. Type of test: cell-based.

Regarding `C=CCN1Cc2c(nn(-c3ccc(Cl)cc3Cl)c2NC(=O)Nc2ccccc2)C(F)(F)C1c1ccc(OC)cc1` (stereo not given), the results for the inhibition at 100 µM in [1] and in test [7] were 80% and 77.4%, respectively. The inhibition result in test [2], in test [3], in [9], in [17] and in [18] was “Active” in each case. Moreover, the inhibition result in [4] is “tde”; in test [6] it was “Dose-dependent effect”; in test [8], “tde”; in test [10] it was “tde”; in [11], “Dose-dependent effect”; in [12], “tde”. The inhibition entry is “Dose-dependent effect” in test [13]; “Dose-dependent effect” in test [14]; “tde” in test [15]; “tde” in test [16]; “tde” in [19]; “Dose-dependent effect” in test [20]. The inhibition result in test [5] is “inactive”.
For `C=CCN1Cc2c(nn(-c3ccc(Cl)cc3Cl)c2NS(=O)(=O)c2ccc(F)cc2)C(F)(F)C1c1ccc(OC)cc1` (stereo not given), in test [1], the inhibition entry is “inactive”. Moreover, the inhibition at 100 µM in [7] stood at 78.8%.
Consider `C=CCN1Cc2c(nn(-c3ccc(Cl)cc3Cl)c2NC(=S)Nc2ccc(C(F)(F)F)cc2)C(F)(F)C1c1ccc(OC)cc1` (stereo not given), for which the results for the inhibition at 100 µM in [1] and in test [7] were 85.1% and 84.1%, respectively. Also, the inhibition entry in test [4] is “tde”; in [6], “Dose-dependent effect”; in test [10] it was “tde”; in [11], “Dose-dependent effect”; in test [12], “tde”; in [13], “Dose-dependent effect”. For the same molecule, the inhibition result in [14] is “Dose-dependent effect”; in test [19], “tde”. In addition, the inhibition result in [21] was “Active”.
`C=CCN1Cc2c(nn(-c3ccc(Cl)cc3Cl)c2NS(=O)(=O)c2ccccc2)C(F)(F)C1c1ccc(OC)cc1` (stereo not given): the inhibition result in [1] was “inactive”. Further, the inhibition at 100 µM in test [7] came to 85.3%.
